Data taken from patent publication US20220041691A1, “METHODS FOR DIAGNOSING OR TREATING POST-TRAUMATIC STRESS DISORDER, AND COMPOSITIONS THEREFOR” (Centre for Addiction and Mental Health, priority 2018, published 2022).
“Also recorded” adds a separate entry of the source.

Tests used:
[1] = test system: GR-FKBP52 complex; assay: Co-immunoprecipitation of GR-FKBP52 complex in mouse brain slices; format: cell-based; conditions: 10 μM, 30 min, vs untreated controls or TAT alone, p<0.05, n=3
Protocol: (§1) To test this hypothesis, the effect of TAT-GRpep on GR-FKBP52 levels was examined using co-immunoprecipitation. […] Similar results were also obtained using confocal microscope in primary mouse neuron cultures.
(§2) Co-immunoprecipitation and Western blot analyses were performed as previously described.^24, 25, 26 For co-immunoprecipitation, 500˜1000 μg solubilized protein was extracted from whole mouse brain and incubated with primary antibody or control IgG (2˜4 μg) for 4 hrs at 4° C., followed by the addition of 25 μl protein A/G plus agarose (Santa Cruz Biotechnology) for 12 hrs. Pellets were washed, boiled for 5 min in SDS sample buffer and subjected to SDS-PAGE. 50˜100 μg of total protein extract was used as control in each experiment. After transfer of proteins into nitrocellulose, membranes were Western blotted with the primary antibodies. The intensity of protein level was quantified by densitometry (software: ImageLab, Bio-Rad).
(§3) Acute brain slices (350 μm thick) were prepared from C57Bl/6 mice with a McIlwain tissue chopper (Mickle Laboratory Engineering, Gomshall, United Kingdom). After being dissected from the brain, mouse cerebral hemispheres were left for 5 min in ice-cold artificial cerebrospinal fluid (aCSF) containing 126 mM NaCl, 2.5 mM KCl, 1 mM MgCl2, 1 mM CaCl2, 1.25 mM KH2PO4, 26 mM NaHCO3 and 20 mM glucose, which was bubbled continuously with carbogen (95% O2/5% CO2). […]

[2] = test system: fear-conditioned mice; assay: Cued fear conditioning, systemic (i.p.) peptide delivery; format: in vivo, mouse
Protocol: Next, testing was performed to determine whether TAT-GRpep can block the emergence of PTSD-like fear-related behaviours when administrated systemically. Animals underwent five rounds of CS-US pairings followed by 5 days of extinction training before the expression of fear in response to the learned cue was assessed (FIG. 4A). Mice were injected with either TAT-GRpep or TAT intraperitoneally (3 nmol/g, i.p.) one hour before the test.
Furthermore, testing was performed to determine whether disrupting the GR-FKBP51 complex reduced consolidation of cued fear memory. Thus, TAT or TAT-GRpep was administered two hours after the end of fear conditioning training (FIG. 4C), before five consecutive daily extinction sessions of cue exposure without shock. […] This may therefore indicate a potential approach to both preventing and treating PTSD-like behaviour in the aftermath of trauma, for example.
Animals were first given a five-minute habituation to the apparatus (Habitest, Colbourne Instruments). Then, animals were exposed to 30 seconds of cue exposure (an in-house white light), which co-terminated with one second of foot-shock (0.5 mA). The cue exposure and foot-shock were repeated five times, intermitted by 5-minute inter-trial intervals. Following the conditioning, animals were subjected to 2-5 days of extinction before the assessment of their cued fear memory, which consisted of 15 rounds of 30-second cue exposure, with 30-second inter-trial intervals (adapted from Andero et al.).^48
The expression of fear (in a different context from training) was assessed 24 hours after the last extinction training. The assessment consisted of a three-minute period of habituation (absence of CS) and a sequent three-minute trial of conditioned cues. The duration of freezing behaviors was recorded by a blinded experimenter. Peptide treatment was either administered 2 hours after the conditioning or 30 minutes before the behavioral assessment.

[3] = test system: fear-conditioned mice; assay: Cued fear conditioning, peptide injected into right amygdala or motor cortex; format: in vivo, mouse
Protocol: Next, testing was performed to determine whether disrupting the GR-FKBP51 complex could reduce freezing behaviors in fear-conditioned mice as a model for PTSD-related symptoms. […] The animals were then subjected to two days of extinction, where the same cues were presented without foot shock, before cued fear memory was assessed. One hour before the fear memory assessment, animals were injected with either control peptide (TAT) or treatment peptide (TAT-GRpep) into the right amygdala. […] However, two-way ANOVA confirmed a significant effect of the cue (F1, 46=10.387, p<0.01) and peptide (F1,46=7.708, p<0.01). […] Both treatment groups reacted similarly to the cue (p=NS; FIG. 3E).
Some of the animals were later subjected to implantation of cannula into either amygdala (AP−1.5, LM−3.0, DV−4.8) or motor cortex (AP+2.1, LM−2.0, DV−1.0). Following surgeries, animals were allowed one week to recover before subjected to any experimental procedures.
Animals were first given a five-minute habituation to the apparatus (Habitest, Colbourne Instruments). Then, animals were exposed to 30 seconds of cue exposure (an in-house white light), which co-terminated with one second of foot-shock (0.5 mA). […]
The expression of fear (in a different context from training) was assessed 24 hours after the last extinction training. […] The duration of freezing behaviors was recorded by a blinded experimenter. […]

[4] = test system: nuclear GR; assay: Nuclear protein isolation, nuclear GR in brain of fear-conditioned mice; format: in vivo, mouse; conditions: 3 nmol/g i.p, vs TAT alone or saline, p<0.05, n=4
Protocol: (§4) Nuclear protein isolation assays were performed in acute mouse brain slices or mouse brain tissue using the Nuclear Protein Extraction Kit (Bio Basic Inc., Amherst, N.Y.). Briefly, after treatment with TAT or TAT-GRpep, mouse brain slices were harvested for nuclear protein extraction according to the manufacturer's instructions.

[5] = biological target: T1, GR-FKBP51 complex (Mus musculus, UniProt Q64378); assay: Co-immunoprecipitation of GR-FKBP51 complex in acute mouse brain slices treated with peptide; format: cell-based; conditions: versus control TAT peptide
T1 construct: from tissue; host or cells: C57Bl/6 mouse brain (acute slices; whole-brain lysate) and blood lymphocytes
T1 sequence (Q64378 1-456): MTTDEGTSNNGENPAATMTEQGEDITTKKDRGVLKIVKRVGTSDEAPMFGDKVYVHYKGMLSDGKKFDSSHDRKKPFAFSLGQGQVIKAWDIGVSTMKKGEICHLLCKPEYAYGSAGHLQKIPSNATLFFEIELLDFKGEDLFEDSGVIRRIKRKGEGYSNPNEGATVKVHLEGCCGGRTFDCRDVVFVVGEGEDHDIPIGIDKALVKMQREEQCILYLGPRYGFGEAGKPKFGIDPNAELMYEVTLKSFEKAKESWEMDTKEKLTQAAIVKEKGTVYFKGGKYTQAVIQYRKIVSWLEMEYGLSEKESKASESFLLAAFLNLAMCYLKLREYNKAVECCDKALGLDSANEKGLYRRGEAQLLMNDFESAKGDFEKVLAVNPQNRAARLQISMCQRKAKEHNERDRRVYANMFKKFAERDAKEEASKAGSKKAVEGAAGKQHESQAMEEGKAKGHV
Protocol: Thus, it is concluded that the GRNT-4-1 region is important for GR-FKBP51 complex formation, and that GRpep disrupted the GR-FKBP51 complex.
as §2, §3

[6] = test system: nuclear GR; assay: Nuclear protein isolation, nuclear GR in mouse brain slices; format: cell-based; conditions: 10 μM, 30 min, vs TAT or untreated controls, p<0.001, n=3
Protocol: as §1
Acute brain slices (350 μm thick) were prepared from C57Bl/6 mice with a McIlwain tissue chopper (Mickle Laboratory Engineering, Gomshall, United Kingdom). After being dissected from the brain, mouse cerebral hemispheres were left for 5 min in ice-cold artificial cerebrospinal fluid (aCSF) containing 126 mM NaCl, 2.5 mM KCl, 1 mM MgCl2, 1 mM CaCl2, 1.25 mM KH2PO4, 26 mM NaHCO3 and 20 mM glucose, which was bubbled continuously with carbogen (95% O2/5% CO2). Freshly cut slices were placed in an incubating chamber with carbogenated aCSF and recovered from stress at 37° C. for 1 hour. Slices were then treated with TAT or TAT-GRpep and harvested for Western blot analysis.
as §4

GRKKRRQRRRPQSPWRSDLLIDENCLL (Amino Acid Sequence of TAT-GRpep Peptide)
GR-FKBP52 complex (FKBP52 co-immunoprecipitated by GR antibody) [1]: more FKBP52 was co-immunoprecipitated by GR antibody; also recorded: significantly increased the amount of GR-FKBP52 complex | duration of freezing with the CS ([2]; 3 nmol/g i.p. one hour before the test, after 5 days of extinction training, three-minute cue trial, p<0.05): 34.1 ± 6.7 s | freezing behavior during habituation period without CS ([2]; 3 nmol/g i.p. one hour before the test, TAT-GRpep vs control group, p=NS): no difference in freezing behavior | cued freezing behaviours (FIG. 4D) ([2]; peptide administered after fear conditioning, before extinction sessions, p<0.05): reduced cued freezing behaviours | duration of freezing with the CS (consolidation of cued fear memory) ([2]; peptide administered two hours after end of fear conditioning, tested 24 hours after last of five daily extinction sessions, p<0.05): 55.9 ± 3.3 s | freezing behavior, cued fear memory assessment ([3]; injected into right amygdala one hour before assessment, after two days of extinction, vs control peptide, p<0.01): significantly lower level of freezing behavior; also recorded: significantly less freezing than controls | freezing behavior, cued fear memory assessment ([3]; peptide infused into motor cortex instead of amygdala, p=NS): did not affect freezing | nuclear GR level / GR nuclear localization [4]: higher levels of nuclear GR; also recorded: increased | GR-FKBP51 complex level (co-immunoprecipitation) [5]: able to disrupt the GR-FKBP51 complex; also recorded: reduced GR-FKBP51 levels | nuclear GR level / proportion of GR in the nucleus [6]: higher levels of nuclear GR; also recorded: significantly increased
